Source: PubChem BioAssay AID588642 (The Scripps Research Institute Molecular Screening Center, 2011)
Activity calls are given as the source filed them.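 How the source made its calls: active means MAPK1 kinase protein level shifted by at least 30% from solvent-only cells, either down or up; inactive means shift in protein level under 30% either way.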

Molecular target: Mitogen-activated protein kinase 1 (Homo sapiens) (UniProt P28482)
Test: total ERK1/2 protein level change, either direction, late-stage follow-up, counter-screen for KLF5 inhibitor project, cell-based, HCT116 colorectal carcinoma, chemiluminescent western blot (AID 588642)
Details: HCT116 ERK1/2 protein level, 24 h, at 10 µM, active compounds read high

Sequence of Mitogen-activated protein kinase 1 (Homo sapiens) (P28482 whole entry, looked up): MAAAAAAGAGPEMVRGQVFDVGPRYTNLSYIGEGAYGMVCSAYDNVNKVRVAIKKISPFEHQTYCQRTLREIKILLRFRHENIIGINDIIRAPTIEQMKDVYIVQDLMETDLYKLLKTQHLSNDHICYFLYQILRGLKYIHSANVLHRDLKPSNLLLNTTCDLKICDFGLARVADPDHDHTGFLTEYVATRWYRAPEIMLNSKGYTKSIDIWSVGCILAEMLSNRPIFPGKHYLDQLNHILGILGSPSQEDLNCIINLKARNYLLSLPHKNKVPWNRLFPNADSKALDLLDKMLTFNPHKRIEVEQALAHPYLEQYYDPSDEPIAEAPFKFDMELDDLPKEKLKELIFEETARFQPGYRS

| Structure (SMILES) | inhibition |
| --- | --- |
| CN(C(=O)COC(=O)/C=C/c1cccc([N+](=O)[O-])c1)C1CCS(=O)(=O)C1 (stereo not drawn) | 4.62% (inactive) |
| CN(C(=O)CNC(=O)/C=C/c1cccc(Cl)c1)C1CCS(=O)(=O)CC1 | 3.03% (inactive) |
| CN(C(=O)CNC(=O)/C=C/c1cccc(Cl)c1)C1CCS(=O)(=O)C1 (stereo not drawn) | 5.48% (inactive) |
